Results published in patent US9951060B2, “2-acylaminothiazole derivative or salt thereof” (ASTELLAS PHARMA INC., priority 2014, dated 2018).
Structures can show the parent of a compound that is named as a salt.

Target: human muscarinic M3 receptor (Homo sapiens, UniProt P20309)
Assay: Test Example 1: muscarinic M3 receptor positive allosteric modulator activity (shift of carbachol concentration-response curve, intracellular Ca2+, FLIPR)
Conditions: test substance 1 μM; carbachol EC50 without / with test substance; CHO-K1 cells expressing human M3
Source text: Test Example 1: Evaluation of Muscarinic M3 Receptor Positive Allosteric Modulator Activity
a) Construction of Vector Expressing Human Muscarinic M3 Receptor
A human muscarinic M3 receptor gene (GenBank Accession No.: NM_000740.2) was introduced into an expression vector pcDNA3.1™ (Life Technologies).
b) Construction of Cells Stably Expressing Human Muscarinic M3 Receptor
A vector expressing a human muscarinic M3 receptor was introduced into a CHO—K1 cell (ATCC No.: CCL-61). The introduction was carried out according to the attached instructions, using a transfection reagent, Lipofectoamine (registered trademark) 2000 Reagent (Life Technologies). The cells were incubated in an alpha Modified Eagle Minimum Essential Medium (α-MEM) including 2 mM glutamine, 10% fetal bovine serum, and 2.0 mg/mL Geneticin (registered trademark) (Life Technologies) for 4 weeks to acquire a drug-resistant clone.
c) Measurement of Intracellular Ca^2+ Concentration
The cells obtained in b) above were suspended in an α-MEM including 2 mM glutamine, 10% fetal bovine serum, and 0.2 mg/mL Geneticin (registered trademark) to the amount from 1.2 to 1.5×10^4 cells/well the day before the experiment, dispensed into a 384-well plate (Model No. 355962, BD Biosciences), and incubated overnight at 37° C. and 5% CO2. The medium was replaced with a loading buffer (an assay buffer (Hank's balanced salt solution (HBSS), 1 g/L BSA, 20 mM HEPES (pH 7.5), and 2.5 mM probenecid), including 3.1 μM Fluo 4-AM (Dojindo Laboratories) and incubated for about 2 hours at room temperature. Thereafter, the cells were washed with a plate washer ELx405™ (BIO-TEK Instrument, Inc.) set with the assay buffer, and set in an intracellular Ca^2+ concentration measuring system (FLIPR^tetra (registered trademark), Molecular Device Co.). The test substances (final concentration of 1 μM or 10 μM) and carbachol (Sigma, final concentration of 0.0024 nM to 10 μM) which had each been dissolved in the assay buffer in advance were set in a FLIPR^tetra (registered trademark). The test substances were added to the cells in the device and after about 5 minutes, carbachol was added to the cells. An increase rate of the intracellular Ca^2+ concentration by carbachol was measured (excitement wavelength of 470 nm to 495 nm and a fluorescence wavelength of 515 nm to 575 nm).
For the muscarinic M3 receptor-positive allosteric modulator activity, a shift toward a lower concentration side of a carbachol concentration-response curve by the test substance was used as an index. […] For example, when the EC50 value of carbachol in the absence of the test substance was 0.1 μM and the EC50 value of carbachol in the presence of the test substance was 0.01 μM, the value of the muscarinic M3 receptor-positive allosteric modulator activity becomes 10, showing that the test substance causes a 10-fold shift in the EC50 value toward to the low concentration side.

Sequence of human muscarinic M3 receptor (P20309 whole entry): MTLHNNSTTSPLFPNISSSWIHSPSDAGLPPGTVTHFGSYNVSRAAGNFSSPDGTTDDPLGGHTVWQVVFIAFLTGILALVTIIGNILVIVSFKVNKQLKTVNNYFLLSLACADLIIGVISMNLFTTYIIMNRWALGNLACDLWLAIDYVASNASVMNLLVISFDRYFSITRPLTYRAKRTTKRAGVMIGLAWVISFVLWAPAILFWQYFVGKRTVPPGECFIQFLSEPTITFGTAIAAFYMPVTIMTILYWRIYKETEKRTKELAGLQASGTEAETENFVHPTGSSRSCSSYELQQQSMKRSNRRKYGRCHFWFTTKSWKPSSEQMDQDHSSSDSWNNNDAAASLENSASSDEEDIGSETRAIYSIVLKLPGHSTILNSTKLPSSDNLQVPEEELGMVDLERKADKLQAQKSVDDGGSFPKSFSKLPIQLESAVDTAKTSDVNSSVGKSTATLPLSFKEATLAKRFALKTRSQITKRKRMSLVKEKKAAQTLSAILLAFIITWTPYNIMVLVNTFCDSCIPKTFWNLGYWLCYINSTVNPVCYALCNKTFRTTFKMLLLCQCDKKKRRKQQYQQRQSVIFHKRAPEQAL

| muscarinic M3 receptor-positive allosteric modulator activity, 1 μM (-fold shift) | Compound |
| --- | --- |
| 18 -fold shift | C[C@@H]1CCCN1Cc1sc(NC(=O)c2cnc(N3CCN(CCC(=O)[O-])CC3)cn2)nc1-c1cc(C#N)cc(C(F)(F)F)c1.[Na+] [Example 34] |
| 28 -fold shift | CCC[C@@H]1CCCN1Cc1sc(NC(=O)c2cnc(N3CCN(CCC(=O)[O-])CC3)cn2)nc1-c1cccc(C(F)(F)F)c1.[Na+] [Example 124] |

Same assay, conditions: test substance 10 μM; carbachol EC50 without / with test substance; CHO-K1 cells expressing human M3

| muscarinic M3 receptor-positive allosteric modulator activity, 10 μM (-fold shift) | Compound |
| --- | --- |
| 116 -fold shift | C[C@@H]1CCCN1Cc1sc(NC(=O)c2cnc(N3CCN(CCC(=O)[O-])CC3)cn2)nc1-c1cc(C#N)cc(C(F)(F)F)c1.[Na+] [Example 34] |
| 101 -fold shift | CCC[C@@H]1CCCN1Cc1sc(NC(=O)c2cnc(N3CCN(CCC(=O)[O-])CC3)cn2)nc1-c1cccc(C(F)(F)F)c1.[Na+] [Example 124] |

Tested on: pelvic nerve stimulation-induced elevation of intravesical pressure
Assay: Test Example 4: effect on pelvic nerve stimulation-induced elevation of intravesical pressure in anesthetized rats
Type: in vivo, rat
Conditions: 3 mg/kg intravenous; maximum effect within one hour; anesthetized SD female rats; pre-treatment = 100%
Method: Test Example 4: Effect on Pelvic Nerve Stimulation-Induced Elevation of Intravesical Pressure in Anesthetized Rats
The effect of the Example compounds of the present invention in the pelvic nerve electrical stimulation-induced elevation of intravesical pressure using rats as an action of nerve stimulation-dependent bladder contraction in vivo was measured by the following method. That is, SD female rats (Japan SLC, Inc.) were used and its lower abdomen was dissected at the midline under pentobarbital anesthesia (50 mg/kg ip). After ligating and cutting the ureter on both sides, a cannula (PE-50) for measuring the intravesical pressure was inserted into the bladder from the external urethral opening and fixed by a clip. After injecting about 200 μL of saline through the cannula that had been inserted into the bladder, the other side was connected to a pressure transducer to measure the intravesical pressure. Under a stereoscopic microscope observation, the pelvic nerve in the vicinity of the bladder was peeled and an electrode for nerve stimulation (unique Medical) was placed. The abdominal cavity was filled with mineral oil (MP BIOMEDICALS). After placing in a post-operative stabilization period, the pelvic nerve was subjected to electrical stimulation (stimulation voltage: 10 V, stimulation frequency: 8 Hz, pulse width: 0.3 msec, and stimulation time: 10 seconds) to elicit the elevation of intravesical pressure, using an electrical stimulator (Nihon Kohden). By repeating the electrical stimulation at an interval of 2 minutes while adjusting the voltage, the voltage was adjusted to elicit about 50% to 70% elevation of intravesical pressure elicited at 10 V. Thereafter, by repeating the electrical stimulation at an interval of 10 minutes, the increase in the intravesical pressure by electrical stimulation was stabilized three times or more, and the test substance (an administration amount of 3 mg/kg) was then administered from the catheter detained in the vein at a volume of 1 mL/kg, thus measuring an effect of the elevation of the intravesical pressure of the test substance for 1 hour. The test substance was dissolved in water supplemented with 10% dimethylsulfoxide and 10% Cremophor.
The response was applied to a personal computer through a PowerLab (registered trademark) and analyzed by LabChart (registered trademark). The AUC of each elevation of the intravesical pressure was calculated, the intravesical pressure elevation rate (% of pre) after the treatment with the test substance was calculated by taking an average value of the values measured three times before the treatment with the test substance as 100%, and the maximum effect during a period within one hour after administration of the compound was considered as the effect of the test substance.
The elevation rates (% of pre) of the intravesical pressure when some Example compounds were administered at 3 mg/kg are shown in Table 4.

| Compound | Increase rate (% of pre) of intravesical pressure |
| --- | --- |
| CC[C@@H]1CCCN1Cc1sc(NC(=O)c2cnc(N3CCN(CCC(=O)O)C[C@@H]3C)cn2)nc1-c1cc(Cl)cs1 [Example 28] | 184 % of pre |
| C[C@@H]1CCCN1Cc1sc(NC(=O)c2cnc(N3CCN(CCC(=O)O)[C@@H](C)C3)cn2)nc1-c1cc(Cl)cs1 [Example 142] | 199 % of pre |
| COc1c(Cl)cc(-c2nc(NC(=O)c3cnc(N4CCN(CCC(=O)O)CC4)cn3)sc2CN2CCC[C@H]2C)cc1Cl [Example 43] | 125 % of pre |
| C[C@@H]1CCCN1Cc1sc(NC(=O)c2cnc(N3CCN(CCC(=O)O)CC3)cn2)nc1-c1ccc(F)c(C(F)(F)F)c1 [Example 60] | 130 % of pre |
| Cc1cc(OC(F)(F)F)cc(-c2nc(NC(=O)c3cnc(N4CCN(CCC(=O)O)CC4)cn3)sc2CN2CCC[C@H]2C)c1 [Example 46] | 126 % of pre |
| C[C@@H]1CCCN1Cc1sc(NC(=O)c2cnc(N3CCN(CC(=O)O)CC3)cn2)nc1-c1cc(Cl)cs1 [Example 51] | 223 % of pre |
| C[C@@H]1CCCN1Cc1sc(NC(=O)c2cnc(N3CCN(CC(=O)O)CC3)cn2)nc1-c1cc(Cl)cc(C(F)(F)F)c1 [Example 13] | 132 % of pre |
| COc1c(F)cc(-c2nc(NC(=O)c3cnc(N4CCN(CCC(=O)O)CC4)cn3)sc2CN2CCC[C@H]2C)cc1C(F)(F)F [Example 72] | 155 % of pre |
| C[C@@H]1CCCN1Cc1sc(NC(=O)c2cnc(N3CCN(CCC(=O)O)[C@@H](C)C3)cn2)nc1-c1cc(C(F)(F)F)cs1 [Example 95] | 239 % of pre |
| CC[C@@H]1CCCN1Cc1sc(NC(=O)c2cnc(N3CCN(CCC(=O)O)CC3)cn2)nc1-c1ccc(OC)c(C(F)(F)F)c1 [Example 42] | 149 % of pre |
| CC[C@@H]1CCCN1Cc1sc(NC(=O)c2cnc(N3CCN(CCC(=O)O)C[C@H]3C)cn2)nc1-c1ccc(OC(C)C)c(C(F)(F)F)c1 [Example 135] | 168 % of pre |
| C[C@@H]1CCCN1Cc1sc(NC(=O)c2cnc(N3CCN(CCC(=O)O)CC3)cn2)nc1-c1cc(C2CC2)cc(C(F)(F)F)c1 [Example 67] | 126 % of pre |
| C[C@@H]1CCCN1Cc1sc(NC(=O)c2cnc(N3CCN(CC(=O)O)CC3)cn2)nc1-c1ccc(F)c(C(F)(F)F)c1 [Example 61] | 129 % of pre |
| C[C@@H]1CCCN1Cc1sc(NC(=O)c2cnc(N3CCN(CCC(=O)O)CC3)cn2)nc1-c1cc(Cl)cc(C(F)(F)F)c1 [Example 11] | 132 % of pre |
| C[C@@H]1CCCN1Cc1sc(NC(=O)c2cnc(N3CCN(CCCC(=O)O)CC3)cn2)nc1-c1cc(F)cc(C(F)(F)F)c1 [Example 21] | 155 % of pre |
| C[C@@H]1CCCN1Cc1sc(NC(=O)c2cnc(N3CCN(CCC(=O)[O-])CC3)cn2)nc1-c1cc(C#N)cc(C(F)(F)F)c1.[Na+] [Example 34] | 134 % of pre |
| CC[C@@H]1CCCN1Cc1sc(NC(=O)c2cnc(N3CCN(CCC(=O)O)[C@H](C)C3)cn2)nc1-c1cc(Cl)cs1 [Example 143] | 172 % of pre |

| Compound | Increase rate (% of pre) of intravesical pressure |
| --- | --- |
| CCOc1ccc(-c2nc(NC(=O)c3cnc(N4CCN(CCC(=O)O)C[C@H]4C)cn3)sc2CN2CCC[C@H]2CC)cc1C(F)(F)F [Example 133] | 150 % of pre |
| C[C@@H]1CCCN1Cc1sc(NC(=O)c2cnc(N3CCN(CCC(=O)O)CC3)cn2)nc1-c1cc(F)cc(C(F)(F)F)c1 [Example 49] | 172 % of pre |
| CCC[C@@H]1CCCN1Cc1sc(NC(=O)c2cnc(N3CCN(CCC(=O)[O-])CC3)cn2)nc1-c1cccc(C(F)(F)F)c1.[Na+] [Example 124] | 143 % of pre |
| COc1ccc(-c2nc(NC(=O)c3cnc(N4CCN(CCC(=O)O)[C@@H](C)C4)cn3)sc2CN2CCC[C@H]2C)cc1C(F)(F)F [Example 10] | 145 % of pre |
| C[C@@H]1CCCN1Cc1sc(NC(=O)c2cnc(N3CCN(CCC(=O)O)CC3)cn2)nc1-c1ccc(Cl)c(C(F)(F)F)c1 [Example 15] | 142 % of pre |
| C[C@@H]1CCCN1Cc1sc(NC(=O)c2cnc(N3CCN(CCC(=O)O)C[C@H]3C)cn2)nc1-c1cc(F)cc(C(F)(F)F)c1 [Example 140] | 148 % of pre |
| C[C@@H]1CC[C@@H](C)N1Cc1sc(NC(=O)c2cnc(N3CCN(CCC(=O)O)CC3)cn2)nc1-c1cc(F)cc(C(F)(F)F)c1 [Example 119] | 173 % of pre |
| CCN(CC)Cc1sc(NC(=O)c2cnc(N3CCN(CCC(=O)O)CC3)cn2)nc1-c1cc(F)cc(C(F)(F)F)c1 [Example 109] | 180 % of pre |
| CC[C@@H]1CCCN1Cc1sc(NC(=O)c2cnc(N3CCN(CCC(=O)O)CC3)cn2)nc1-c1cccc(C(F)(F)F)c1 [Example 65] | 128 % of pre |
| Cc1cc(OC(F)(F)F)cc(-c2nc(NC(=O)c3cnc(N4CCN(C(C)C(=O)O)CC4)cn3)sc2CN2CCC[C@H]2C)c1 (stereo partly shown) [Example 48] | 121 % of pre |
| C[C@@H]1CCCN1Cc1sc(NC(=O)c2cnc(N3CCN(CC(=O)O)C[C@H]3C)cn2)nc1-c1cc(F)cc(C(F)(F)F)c1 [Example 141] | 175 % of pre |
| CC(C(=O)O)N1CCN(c2cnc(C(=O)Nc3nc(-c4cc(F)cc(C(F)(F)F)c4)c(CN4CCC[C@H]4C)s3)cn2)CC1 (stereo partly shown) [Example 64] | 135 % of pre |
| C[C@@H]1CCCN1Cc1sc(NC(=O)c2cnc(N3CCN(CCC(=O)O)CC3)cn2)nc1-c1cc(Cl)cs1 [Example 82] | 138 % of pre |
| C[C@@H]1CCCN1Cc1sc(NC(=O)c2cnc(N3CCN(CCC(=O)O)CC3)cn2)nc1-c1cc(Cl)cs1 [Example 50] | 207 % of pre |
| C[C@@H]1CCCN1Cc1sc(NC(=O)c2cnc(N3CCN(CCC(=O)O)C[C@H]3C)cn2)nc1-c1cc(C(F)(F)F)cs1 [Example 3, 3-[(3R)-3-methyl-4-{5-[(5-{[(2R)-2-methylpyrrolidin-1-yl]methyl}-4-[4-(trifluoromethyl)thiophen-2-yl]-1,3-thiazol-2-yl)carbamoyl]pyrazin-2-yl}piperazin-1-yl]propanoic acid dihydrochloride] | 251 % of pre |
| COc1cc(-c2nc(NC(=O)c3cnc(N4CCN(CCC(=O)O)CC4)cn3)sc2CN2CCC[C@H]2C)cc(C(F)(F)F)c1 [Example 52] | 129 % of pre |
